The source of these data is the NIST ThermoML archive (doi:10.1021/acs.jced.7b00171).

± gives the expanded uncertainty stated by the source.

The data set is described as follows: Solid-liquid equilibrium temperature. Conditions: Crystal 1, visual observation.

For `C1CCCCC1` [cyclohexane], the Solid-liquid equilibrium temperature worked out at 280.31 ± 0.26 K (1310 kPa), 281.53 ± 0.34 K (3430 kPa) and 282.52 ± 0.41 K (5310 kPa).
